According to US20230414578A1, “PHARMACEUTICAL COMPOSITION” (KOWA COMPANY, LTD., priority 2017, published 2023):

Columns and labels:
[1] = Test Example 1: storage stability of pemafibrate alone (HPLC related substances); format: physicochemical
Method: In Test Examples below, measurement was performed through HPLC using an ODS column as a column and an ultraviolet spectrophotometer as a detector. 250 mg of pemafibrate was encapsulated in a polypropylene container (tight container defined in The Japanese Pharmacopoeia, 17th Edition, General Rules), and stored in a dark place at a temperature of 60° C. for 1 month. The amounts of pemafibrate-derived decomposition products (related substances) before the start of storage and after storage at 60° C. for 1 month were evaluated through the following method. The sum of related substance-derived peak areas was evaluated in terms of a ratio (%) to the pemafibrate-derived peak area using an HPLC apparatus, and the ratio was defined as the “Total amount (%) of related substances”.

[2] = Test Example 3: interaction study, visual examination of discoloration; format: physicochemical
Method: The states (the presence or absence of discoloration) of the samples before the start of storage and after storage at 60°G for 2 weeks were visually examined.

CC[C@@H](Oc1cccc(CN(CCCOc2ccc(OC)cc2)c2nc3ccccc3o2)c1)C(=O)O [Pemafibrate alone, (2R)-2-[3-([1,3-Benzoxazol-2-yl[3-(4-methoxyphenoxy)propyl]amino]methyl)phenoxy]butanoic acid]
increase in the amount of related substances (in words) ([1]; after storage at 60° C. for 1 month): no substantive increase | Total amount (%) of related substances, Before storage ([1]; before start of storage, sum of related substance peak areas as ratio to pemafibrate peak area, HPLC): <0.05% | Total amount (%) of related substances, After storage at 60° C. for 1 month ([1]; polypropylene tight container, dark place, 60° C., 1 month, HPLC peak area ratio): <0.05% | State, Before storage ([2]; before start of storage): White | State, After storage at 60° C. for 2 weeks ([2]; polypropylene tight container, dark place, 60° C., 2 weeks): White
